Data taken from patent US11564927B2, “Therapeutic compositions, combinations, and methods of use” (Verastem, Inc., priority 2015, dated 2023).

How the values were obtained:
[1] = test system: syngeneic MC38 colorectal tumors; assay: Survival of mice bearing MC38 colorectal tumors; assay type: in vivo, mouse
Protocol: Based on the inhibition of tumor-associated macrophages and enhancement of CD8+ T-cells, potentiation of FAK/PYK2 inhibitors on the anti-tumor efficacy of an anti-PD-1 monoclonal antibody in syngeneic mouse tumor models was investigated. Mice bearing established syngeneic MC38 colorectal tumors were treated with VS-4718 for 5 days before combination treatment with anti-PD1 antibody along with continued VS-4718 administration. Combination of VS-4718 with anti-PD1 extended the median overall survival to 42 days relative to 21, 25 and 28 day median overall survival with vehicle control, single agent anti-PD-1 and single agent VS-4718, respectively (FIG. 2).

[2] = test system: Primary human CD8+ T-cells; assay: CD8+ T-cell proliferation, BrdU incorporation; assay type: cell-based; conditions: 72 hours, anti-CD3/anti-CD28 coated beads, BrdU incorporation (FIG. 1)
Protocol: Primary human CD8+ T-cells isolated from healthy donor PBMCs were incubated in the presence of anti-CD^3/anti-CD28 coated beads with increasing concentrations of VS-4718 or VS-6063 for 72-hours and assayed for BrdU incorporation as a measure of new DNA synthesis.
CD8+ T cells were isolated from fresh, healthy human PBMCs by negative immunomagnetic bead separation. Purified CD8+ T cells were plated on CD3-coated plates in the presence or absence of VS-4718, VS-6063, or GSK2256098 for 72 hours. Assay wells were pulsed with BrdU for the last 3-4 hours of culture and subjected to a BrdU-incorporation assay for the determination of actively proliferating cells. Data shown in FIG. 5 are presented as fold-change vs. DMSO control wells.

SMILES	mice still surviving ([1]; day 56, MC38 model)	median overall survival ([1]; mice with established MC38 tumors, VS-4718 for 5 days before combination with anti-PD1 (FIG. 2)) [days]	proliferation of CD8+ cytotoxic T-cells [2]
CNC(=O)c1ccccc1Nc1cc(Nc2ccc(N3CCOCC3)cc2OC)ncc1C(F)(F)F [VS-4718]	no surviving mice	28	stimulate proliferation
Cc1nc(Nc2ncc(C(=O)Nc3c(C)cccc3Cl)s2)cc(N2CCN(CCO)CC2)n1 [dasatinib]			potently impair the proliferation
CC(=O)Nc1cccc(-n2c(=O)n(C3CC3)c(=O)c3c(Nc4ccc(I)cc4F)n(C)c(=O)c(C)c32)c1 [trametinib]			potently impair the proliferation
